According to ChEMBL document CHEMBL6153104, “Discovery of the first potent ROR1 degrader for the treatment of non-small cell lung cancer” (Eur J Med Chem, 2025):

Key:
Assay type in all cases: cell-based
[1] = biological target: T1, von Hippel-Lindau disease tumor suppressor/Inactive tyrosine-protein kinase transmembrane receptor ROR1 (Homo sapiens, UniProt P40337+Q01973); test: PROTAC activity at VHL/ROR1 in human NCI-H23 cells assessed as induction of ROR1 degradation at 0.1 uM incubated for 24 hrs by Western blot analysis relative to control
[2] = biological target: T1, von Hippel-Lindau disease tumor suppressor/Inactive tyrosine-protein kinase transmembrane receptor ROR1; test: PROTAC activity at VHL/ROR1 in human NCI-H23 cells assessed as induction of ROR1 degradation at 1 uM incubated for 24 hrs by Western blot analysis relative to control
[3] = biological target: T2, Protein cereblon/Inactive tyrosine-protein kinase transmembrane receptor ROR1 (Homo sapiens) (UniProt Q96SW2+Q01973); test: PROTAC activity at CRBN/ROR1 in human NCI-H23 cells assessed as induction of ROR1 degradation at 0.1 uM incubated for 24 hrs by Western blot analysis relative to control
[4] = biological target: T2, Protein cereblon/Inactive tyrosine-protein kinase transmembrane receptor ROR1 (Homo sapiens); test: PROTAC activity at CRBN/ROR1 in human NCI-H23 cells assessed as induction of ROR1 degradation at 1 uM incubated for 24 hrs by Western blot analysis relative to control

T1 sequence (P40337 whole entry): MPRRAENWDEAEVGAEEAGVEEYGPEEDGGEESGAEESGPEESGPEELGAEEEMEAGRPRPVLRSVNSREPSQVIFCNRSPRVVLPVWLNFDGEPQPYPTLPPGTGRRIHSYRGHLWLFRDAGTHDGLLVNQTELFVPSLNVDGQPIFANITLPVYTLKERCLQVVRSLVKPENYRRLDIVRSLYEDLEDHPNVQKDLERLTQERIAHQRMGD
T1 sequence (Q01973 30-937 partner limits assumed): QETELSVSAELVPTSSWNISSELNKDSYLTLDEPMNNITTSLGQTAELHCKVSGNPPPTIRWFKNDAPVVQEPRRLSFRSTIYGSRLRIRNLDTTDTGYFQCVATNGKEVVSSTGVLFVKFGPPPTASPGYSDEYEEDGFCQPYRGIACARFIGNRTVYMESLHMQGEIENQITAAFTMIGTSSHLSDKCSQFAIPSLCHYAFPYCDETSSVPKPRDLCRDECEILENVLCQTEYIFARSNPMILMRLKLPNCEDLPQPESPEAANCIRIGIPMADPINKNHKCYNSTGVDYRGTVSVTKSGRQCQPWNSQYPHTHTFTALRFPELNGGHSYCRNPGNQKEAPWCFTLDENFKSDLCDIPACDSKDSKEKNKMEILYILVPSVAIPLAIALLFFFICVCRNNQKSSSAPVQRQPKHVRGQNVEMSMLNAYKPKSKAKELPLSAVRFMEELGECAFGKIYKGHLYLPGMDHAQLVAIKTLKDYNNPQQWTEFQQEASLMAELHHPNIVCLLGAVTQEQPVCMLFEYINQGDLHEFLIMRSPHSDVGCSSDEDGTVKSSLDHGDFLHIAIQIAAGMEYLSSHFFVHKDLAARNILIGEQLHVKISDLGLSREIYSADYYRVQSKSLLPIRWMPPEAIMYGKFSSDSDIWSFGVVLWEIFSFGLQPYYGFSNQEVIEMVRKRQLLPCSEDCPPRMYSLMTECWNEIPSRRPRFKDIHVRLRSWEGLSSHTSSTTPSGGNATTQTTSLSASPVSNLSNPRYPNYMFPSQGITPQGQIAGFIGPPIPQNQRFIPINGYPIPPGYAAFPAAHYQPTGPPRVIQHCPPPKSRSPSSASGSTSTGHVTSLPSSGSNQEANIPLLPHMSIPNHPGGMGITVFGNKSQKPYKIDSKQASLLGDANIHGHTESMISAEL
T2 sequence (Q01973 whole entry, looked up): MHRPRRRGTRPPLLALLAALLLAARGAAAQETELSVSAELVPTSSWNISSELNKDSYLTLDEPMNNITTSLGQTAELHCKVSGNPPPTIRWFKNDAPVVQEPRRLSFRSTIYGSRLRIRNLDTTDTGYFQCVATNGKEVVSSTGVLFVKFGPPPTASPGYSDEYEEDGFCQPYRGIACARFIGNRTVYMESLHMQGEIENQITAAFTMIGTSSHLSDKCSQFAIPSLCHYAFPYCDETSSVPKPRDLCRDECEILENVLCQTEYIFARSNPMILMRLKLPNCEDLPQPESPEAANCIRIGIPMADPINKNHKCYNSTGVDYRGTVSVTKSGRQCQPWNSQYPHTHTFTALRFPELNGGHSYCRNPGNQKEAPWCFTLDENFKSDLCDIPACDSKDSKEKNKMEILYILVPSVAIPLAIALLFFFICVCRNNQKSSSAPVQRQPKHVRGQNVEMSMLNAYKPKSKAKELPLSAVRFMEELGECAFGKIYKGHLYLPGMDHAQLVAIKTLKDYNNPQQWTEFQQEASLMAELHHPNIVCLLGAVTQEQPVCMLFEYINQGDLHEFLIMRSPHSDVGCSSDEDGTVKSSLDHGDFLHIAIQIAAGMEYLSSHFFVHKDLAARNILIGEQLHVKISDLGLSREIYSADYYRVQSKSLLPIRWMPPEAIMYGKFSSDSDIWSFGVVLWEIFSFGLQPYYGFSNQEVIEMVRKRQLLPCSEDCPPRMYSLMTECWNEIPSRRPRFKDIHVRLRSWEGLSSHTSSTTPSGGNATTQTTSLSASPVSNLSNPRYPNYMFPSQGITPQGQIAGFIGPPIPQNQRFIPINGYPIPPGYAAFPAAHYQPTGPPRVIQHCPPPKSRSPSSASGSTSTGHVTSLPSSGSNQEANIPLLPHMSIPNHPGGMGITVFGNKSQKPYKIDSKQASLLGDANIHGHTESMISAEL
T2 sequence (Q96SW2 whole entry, looked up): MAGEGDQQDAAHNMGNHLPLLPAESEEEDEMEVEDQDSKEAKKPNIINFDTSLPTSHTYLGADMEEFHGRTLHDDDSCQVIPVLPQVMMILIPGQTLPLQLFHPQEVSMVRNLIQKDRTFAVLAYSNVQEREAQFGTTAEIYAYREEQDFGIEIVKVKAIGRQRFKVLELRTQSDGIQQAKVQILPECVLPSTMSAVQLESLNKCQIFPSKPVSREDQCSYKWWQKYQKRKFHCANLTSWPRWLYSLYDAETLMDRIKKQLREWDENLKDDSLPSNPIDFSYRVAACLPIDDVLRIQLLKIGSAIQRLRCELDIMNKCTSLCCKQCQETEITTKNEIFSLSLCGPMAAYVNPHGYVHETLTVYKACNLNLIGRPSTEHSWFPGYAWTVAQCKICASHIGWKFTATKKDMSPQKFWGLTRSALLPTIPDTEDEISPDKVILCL

Row | Activity [1] [%] | Activity [2] [%] | Activity [3] [%] | Activity [4] [%] | SMILES
1 | – | – | 0 | 60.5 | CCN1CCC(Nc2c(Br)cnc3[nH]c(-c4ccc(N5CCN(C(=O)CCCCCCCCCOc6ccc7c(c6)C(=O)N(C6CCC(=O)NC6=O)C7=O)CC5)cc4)nc23)CC1 (stereo not drawn)
2 | – | – | 9.5 | 0 | CCN1CCC(Nc2c(Br)cnc3[nH]c(-c4ccc(N5CCN(C(=O)CCCCCCCOc6cccc7c6C(=O)N(C6CCC(=O)NC6=O)C7=O)CC5)cc4)nc23)CC1 (stereo not drawn)
3 | – | – | 0 | 0 | CCN1CCC(Nc2c(Br)cnc3[nH]c(-c4ccc(N5CCN(C(=O)CCCCCOc6ccc7c(c6)C(=O)N(C6CCC(=O)NC6=O)C7=O)CC5)cc4)nc23)CC1 (stereo not drawn)
4 | – | – | 6.2 | 75.8 | CCN1CCC(Nc2c(Br)cnc3[nH]c(-c4ccc(N5CCN(C(=O)CCCCCNc6cccc7c6C(=O)N(C6CCC(=O)NC6=O)C7=O)CC5)cc4)nc23)CC1 (stereo not drawn)
5 | – | – | 30.5 | 73.3 | CCN1CCC(Nc2c(Br)cnc3[nH]c(-c4ccc(N5CCN(C(=O)CCCCCCCNc6ccc7c(c6)C(=O)N(C6CCC(=O)NC6=O)C7=O)CC5)cc4)nc23)CC1 (stereo not drawn)
6 | – | – | 0 | 88.7 | CCN1CCC(Nc2c(Br)cnc3[nH]c(-c4ccc(N5CCN(CCOCCOCCNc6ccc7c(c6)C(=O)N(C6CCC(=O)NC6=O)C7=O)CC5)cc4)nc23)CC1 (stereo not drawn)
7 | – | – | 1.6 | 0 | CCN1CCC(Nc2c(Br)cnc3[nH]c(-c4ccc(N5CCN(C(=O)CCCCCCCCCNc6ccc7c(c6)C(=O)N(C6CCC(=O)NC6=O)C7=O)CC5)cc4)nc23)CC1 (stereo not drawn)
8 | – | – | 3.2 | 92.7 | CCN1CCC(Nc2c(Br)cnc3[nH]c(-c4ccc(N5CCN(CCNc6ccc7c(c6)C(=O)N(C6CCC(=O)NC6=O)C7=O)CC5)cc4)nc23)CC1 (stereo not drawn)
9 | – | – | 1.2 | 75.3 | CCN1CCC(Nc2c(Br)cnc3[nH]c(-c4ccc(N5CCN(C(=O)CCCCCCCNc6cccc7c6C(=O)N(C6CCC(=O)NC6=O)C7=O)CC5)cc4)nc23)CC1 (stereo not drawn)
10 | – | – | 0 | 0 | CCN1CCC(Nc2c(Br)cnc3[nH]c(-c4ccc(N5CCN(C(=O)CCCCCCCOc6ccc7c(c6)C(=O)N(C6CCC(=O)NC6=O)C7=O)CC5)cc4)nc23)CC1 (stereo not drawn)
11 | – | – | 6.1 | 96.5 | CCN1CCC(Nc2c(Br)cnc3[nH]c(-c4ccc(N5CCN(CCCCCCNc6cccc7c6C(=O)N(C6CCC(=O)NC6=O)C7=O)CC5)cc4)nc23)CC1 (stereo not drawn)
12 | – | – | 37.6 | 89.9 | CCN1CCC(Nc2c(Br)cnc3[nH]c(-c4ccc(N5CCN(CCCCCCNc6ccc7c(c6)C(=O)N(C6CCC(=O)NC6=O)C7=O)CC5)cc4)nc23)CC1 (stereo not drawn)
13 | – | – | 11 | 46.8 | CCN1CCC(Nc2c(Br)cnc3[nH]c(-c4ccc(N5CCN(C(=O)CCCNc6ccc7c(c6)C(=O)N(C6CCC(=O)NC6=O)C7=O)CC5)cc4)nc23)CC1 (stereo not drawn)
14 | – | – | 6.7 | 57.5 | CCN1CCC(Nc2c(Br)cnc3[nH]c(-c4ccc(N5CCN(C(=O)CCCCCCCCCNc6cccc7c6C(=O)N(C6CCC(=O)NC6=O)C7=O)CC5)cc4)nc23)CC1 (stereo not drawn)
15 | – | – | 0 | 87.3 | CCN1CCC(Nc2c(Br)cnc3[nH]c(-c4ccc(N5CCN(C(=O)CCCOc6ccc7c(c6)C(=O)N(C6CCC(=O)NC6=O)C7=O)CC5)cc4)nc23)CC1 (stereo not drawn)
16 | – | – | 35.5 | 87.2 | CCN1CCC(Nc2c(Br)cnc3[nH]c(-c4ccc(N5CCN(C(=O)CCCCCNc6ccc7c(c6)C(=O)N(C6CCC(=O)NC6=O)C7=O)CC5)cc4)nc23)CC1 (stereo not drawn)
17 | – | – | 0.8 | 71 | CCN1CCC(Nc2c(Br)cnc3[nH]c(-c4ccc(N5CCN(C(=O)CNc6ccc7c(c6)C(=O)N(C6CCC(=O)NC6=O)C7=O)CC5)cc4)nc23)CC1 (stereo not drawn)
18 | – | – | 0 | 0 | CCN1CCC(Nc2c(Br)cnc3[nH]c(-c4ccc(N5CCN(C(=O)COc6ccc7c(c6)C(=O)N(C6CCC(=O)NC6=O)C7=O)CC5)cc4)nc23)CC1 (stereo not drawn)
19 | – | – | 38.7 | 99.6 | CCN1CCC(Nc2c(Br)cnc3[nH]c(-c4ccc(N5CCN(C(=O)CCCCCCCCCOc6cccc7c6C(=O)N(C6CCC(=O)NC6=O)C7=O)CC5)cc4)nc23)CC1 (stereo not drawn)
20 | – | – | 0 | 0 | CCN1CCC(Nc2c(Br)cnc3[nH]c(-c4ccc(N5CCN(C(=O)CCCCCOc6cccc7c6C(=O)N(C6CCC(=O)NC6=O)C7=O)CC5)cc4)nc23)CC1 (stereo not drawn)
21 | – | – | 0 | 50.6 | CCN1CCC(Nc2c(Br)cnc3[nH]c(-c4ccc(N5CCN(C(=O)CCCOc6cccc7c6C(=O)N(C6CCC(=O)NC6=O)C7=O)CC5)cc4)nc23)CC1 (stereo not drawn)
22 | – | – | 23.2 | 97.4 | CCN1CCC(Nc2c(Br)cnc3[nH]c(-c4ccc(N5CCN(CCCNc6ccc7c(c6)C(=O)N(C6CCC(=O)NC6=O)C7=O)CC5)cc4)nc23)CC1 (stereo not drawn)
23 | – | – | 6.6 | 76 | CCN1CCC(Nc2c(Br)cnc3[nH]c(-c4ccc(N5CCN(C(=O)CCCNc6cccc7c6C(=O)N(C6CCC(=O)NC6=O)C7=O)CC5)cc4)nc23)CC1 (stereo not drawn)

The next lines start with the compound.

Row | SMILES | Activity [1] [%] | Activity [2] [%] | Activity [3] [%] | Activity [4] [%]
24 | CCN1CCC(Nc2c(Br)cnc3[nH]c(-c4ccc(N5CCN(C(=O)CCC(=O)N[C@H](C(=O)N6C[C@H](O)C[C@H]6C(=O)NCc6ccc(-c7scnc7C)cc6)C(C)(C)C)CC5)cc4)nc23)CC1 | 32.5 | 85.8 | – | –
25 | CCN1CCC(Nc2c(Br)cnc3[nH]c(-c4ccc(N5CCN(CCOCCOCCOCCNc6ccc7c(c6)C(=O)N(C6CCC(=O)NC6=O)C7=O)CC5)cc4)nc23)CC1 (stereo not drawn) | – | – | 0 | 73.5
26 | CCN1CCC(Nc2c(Br)cnc3[nH]c(-c4ccc(N5CCN(C(=O)CCCCCCCCCCC(=O)N[C@H](C(=O)N6C[C@H](O)C[C@H]6C(=O)NCc6ccc(-c7scnc7C)cc6)C(C)(C)C)CC5)cc4)nc23)CC1 | 85.1 | 99.7 | – | –
27 | CCN1CCC(Nc2c(Br)cnc3[nH]c(-c4ccc(N5CCN(C(=O)COc6cccc7c6C(=O)N(C6CCC(=O)NC6=O)C7=O)CC5)cc4)nc23)CC1 (stereo not drawn) | – | – | 38 | 88.9
28 | CCN1CCC(Nc2c(Br)cnc3[nH]c(-c4ccc(N5CCN(CCCCCC(=O)N[C@H](C(=O)N6C[C@H](O)C[C@H]6C(=O)NCc6ccc(-c7scnc7C)cc6)C(C)(C)C)CC5)cc4)nc23)CC1 | 29.3 | 78.5 | – | –
29 | CCN1CCC(Nc2c(Br)cnc3[nH]c(-c4ccc(N5CCN(CCNc6cccc7c6C(=O)N(C6CCC(=O)NC6=O)C7=O)CC5)cc4)nc23)CC1 (stereo not drawn) | – | – | 69.7 | 99.3
30 | CCN1CCC(Nc2c(Br)cnc3[nH]c(-c4ccc(N5CCN(C(=O)CCCCC(=O)N[C@H](C(=O)N6C[C@H](O)C[C@H]6C(=O)NCc6ccc(-c7scnc7C)cc6)C(C)(C)C)CC5)cc4)nc23)CC1 | 12.9 | 35.3 | – | –
31 | CCN1CCC(Nc2c(Br)cnc3[nH]c(-c4ccc(N5CCN(CCCCCCCCCC(=O)N[C@H](C(=O)N6C[C@H](O)C[C@H]6C(=O)NCc6ccc(-c7scnc7C)cc6)C(C)(C)C)CC5)cc4)nc23)CC1 | 28.1 | 88.4 | – | –
32 | CCN1CCC(Nc2c(Br)cnc3[nH]c(-c4ccc(N5CCN(CCOCCOCCOCCNc6cccc7c6C(=O)N(C6CCC(=O)NC6=O)C7=O)CC5)cc4)nc23)CC1 (stereo not drawn) | – | – | 30.4 | 93.8
33 | CCN1CCC(Nc2c(Br)cnc3[nH]c(-c4ccc(N5CCN(C(=O)CNc6cccc7c6C(=O)N(C6CCC(=O)NC6=O)C7=O)CC5)cc4)nc23)CC1 (stereo not drawn) | – | – | 0 | 83.3
34 | CCN1CCC(Nc2c(Br)cnc3[nH]c(-c4ccc(N5CCN(CCOCCOCCNc6cccc7c6C(=O)N(C6CCC(=O)NC6=O)C7=O)CC5)cc4)nc23)CC1 (stereo not drawn) | – | – | 11.1 | 89.6
35 | CCN1CCC(Nc2c(Br)cnc3[nH]c(-c4ccc(N5CCN(CC(=O)N[C@H](C(=O)N6C[C@H](O)C[C@H]6C(=O)NCc6ccc(-c7scnc7C)cc6)C(C)(C)C)CC5)cc4)nc23)CC1 | 10.2 | 46.2 | – | –
36 | CCN1CCC(Nc2c(Br)cnc3[nH]c(-c4ccc(N5CCN(CCCNc6cccc7c6C(=O)N(C6CCC(=O)NC6=O)C7=O)CC5)cc4)nc23)CC1 (stereo not drawn) | – | – | 76.1 | 99.7
37 | CCN1CCC(Nc2c(Br)cnc3[nH]c(-c4ccc(N5CCN(CCCCCCCC(=O)N[C@H](C(=O)N6C[C@H](O)C[C@H]6C(=O)NCc6ccc(-c7scnc7C)cc6)C(C)(C)C)CC5)cc4)nc23)CC1 | 52.5 | 99.6 | – | –
38 | CCN1CCC(Nc2c(Br)cnc3[nH]c(-c4ccc(N5CCN(CCCC(=O)N[C@H](C(=O)N6C[C@H](O)C[C@H]6C(=O)NCc6ccc(-c7scnc7C)cc6)C(C)(C)C)CC5)cc4)nc23)CC1 | 22.6 | 23.6 | – | –
39 | CCN1CCC(Nc2c(Br)cnc3[nH]c(-c4ccc(N5CCN(C(=O)CCCCCCC(=O)N[C@H](C(=O)N6C[C@H](O)C[C@H]6C(=O)NCc6ccc(-c7scnc7C)cc6)C(C)(C)C)CC5)cc4)nc23)CC1 | 36.5 | 84.1 | – | –
